Source: BindingDB's records for patent US11149066 (Daiichi Sankyo, 2021)
Positions of bridges follow the written chain, without caps; N, C: chain ends. Residues, ends and D or L forms follow the SMILES beside them.

Target: Thrombospondin-1 (Homo sapiens, UniProt P07996)
Assay: TSP1 inhibitory activity
Method: As referred to herein, the TSP1 inhibitory activity refers to the activity to inhibit one or more effects of TSP1, including angiostatic effect. The TSP1 inhibitory activity is measured by a cell adhesion inhibition assay using human TSP1 and vascular endothelial cells as described hereinbelow in the Examples section. In this assay, when the 50% inhibitory concentration (IC5O) of a test substance is 200 nM or less, the test substance is determined to have TSP1 inhibitory activity.

Thrombospondin-1, sequence (P07996 whole entry): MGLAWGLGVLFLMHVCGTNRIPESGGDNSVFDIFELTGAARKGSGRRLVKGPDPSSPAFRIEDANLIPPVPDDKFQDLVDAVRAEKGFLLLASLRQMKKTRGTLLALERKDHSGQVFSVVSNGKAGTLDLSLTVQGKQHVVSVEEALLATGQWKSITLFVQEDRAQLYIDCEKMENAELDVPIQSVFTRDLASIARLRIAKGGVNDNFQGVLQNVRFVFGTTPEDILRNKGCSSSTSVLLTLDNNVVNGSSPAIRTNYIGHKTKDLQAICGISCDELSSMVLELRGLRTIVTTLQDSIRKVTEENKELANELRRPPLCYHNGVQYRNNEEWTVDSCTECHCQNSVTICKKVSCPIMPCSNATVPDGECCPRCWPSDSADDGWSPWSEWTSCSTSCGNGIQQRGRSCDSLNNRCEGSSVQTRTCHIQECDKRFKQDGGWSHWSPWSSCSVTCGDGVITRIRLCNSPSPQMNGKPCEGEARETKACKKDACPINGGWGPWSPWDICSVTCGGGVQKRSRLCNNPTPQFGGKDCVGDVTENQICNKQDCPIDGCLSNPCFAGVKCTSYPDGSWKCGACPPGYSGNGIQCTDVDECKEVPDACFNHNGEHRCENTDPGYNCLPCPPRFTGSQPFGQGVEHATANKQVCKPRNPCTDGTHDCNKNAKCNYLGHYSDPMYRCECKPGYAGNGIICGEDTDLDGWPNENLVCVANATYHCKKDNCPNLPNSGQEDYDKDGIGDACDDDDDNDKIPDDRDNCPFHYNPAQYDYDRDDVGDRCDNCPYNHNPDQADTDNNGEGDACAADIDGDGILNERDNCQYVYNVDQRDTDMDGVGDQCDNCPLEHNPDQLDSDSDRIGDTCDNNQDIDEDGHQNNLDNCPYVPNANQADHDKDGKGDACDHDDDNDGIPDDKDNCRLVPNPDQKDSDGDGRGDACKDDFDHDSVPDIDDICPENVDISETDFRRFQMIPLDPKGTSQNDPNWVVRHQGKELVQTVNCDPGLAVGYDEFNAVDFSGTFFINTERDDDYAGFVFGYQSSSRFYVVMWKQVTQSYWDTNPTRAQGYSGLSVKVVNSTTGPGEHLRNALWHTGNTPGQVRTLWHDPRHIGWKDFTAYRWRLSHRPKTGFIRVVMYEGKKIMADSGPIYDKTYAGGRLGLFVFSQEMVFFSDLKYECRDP

Kd: 0.091 nM
Structure (SMILES): CC[C@H](C)[C@@H]1NC(=O)[C@H](Cc2ccccc2)NC(=O)CSC[C@@H](C(N)=O)NC(=O)[C@H](C(C)C)NC(=O)[C@H](Cc2c[nH]c3ccccc23)NC(=O)[C@H](CCCNC(=N)N)NC(=O)[C@H](C(C)C)NC(=O)[C@H](Cc2c[nH]c3ccccc23)NC(=O)[C@H](CC(N)=O)NC(=O)[C@H](CCCCN)NC(=O)CNC(=O)[C@H](CO)NC1=O [US11149066, Compound 10] ({CH2CO}-FISGKNWVRWVC-NH2; thioether N-12)
